Key:
Fusarium [1] = assay: Lysozyme against Fusarium, plug in PD broth; type: cell-based
Experimental: PD broth was prepared and autoclaved in dilution bottles (100 ml) and allowed to cool. Required amounts of lysozyme were added into the bottles and dissolved. […] A square of Fusarium (5-10 mm square “plug”) was cut and placed in/near the center of each dish. The plates were incubated at room temperature for 2 weeks. The trial was carried out in triplicate and was repeated three times.
The fungal growth was quantified by measuring the diameter of Fusarium growth and the coverage of the plates by the fungus. The measurements (given in mm) also include the size of the inoculum plug inserted into the plate of media. The color change and the change in the physical appearance (fuzzy, not fuzzy) were also monitored. The Fusarium growth is pink to dark pink. All the numbers shown are the averages of three replicates for each treatment. The diameter of the plate was approximately 85 mm.

Fusarium [2] = assay: Lysozyme against Fusarium inoculated from liquid broth; type: cell-based
Experimental: PD broth was prepared and autoclaved in dilution bottles (100 ml) and allowed to cool. Various amounts of lysozyme were added into the bottles and dissolved. […] One ml of Fusarium broth was transferred into each dish and the contents were mixed well. The plates were incubated at room temperature for 2 weeks. The trial was carried out in triplicate and was repeated three times. Pictures of the fungi were taken daily using a digital camera and the data was transferred on to the computer and processed.

Substance: lysozyme: type c egg white lysozyme, enzyme of approximately 129 amino acids; commercially available from Canadian Inovatech, Inc.
- Fusarium growth (Fusarium [1]; 250 ppm, broth turned yellow after 10 days): quite limited
- diameter of Fusarium growth (Fusarium [1]; Batch 1, 25 ppm, day 0 (inoculum plug)): 9.3 mm
- growth, color and physical appearance (Fusarium [1]; Batch 1, 25 ppm, day 4): Confluent, pink
- growth, color and physical appearance (Fusarium [1]; Batch 1, 25 ppm, day 7): Confluent, dark
- growth, color and physical appearance (Fusarium [1]; Batch 1, 25 ppm, day 11): Confluent, dark
- diameter of Fusarium growth (Fusarium [1]; Batch 1, 50 ppm, day 0 (inoculum plug)): 9.7 mm
- growth, color and physical appearance (Fusarium [1]; Batch 1, 50 ppm, day 4): Confluent, pink
- growth, color and physical appearance (Fusarium [1]; Batch 1, 50 ppm, day 7): Confluent, dark
- growth, color and physical appearance (Fusarium [1]; Batch 1, 50 ppm, day 11): Confluent, dark
- diameter of Fusarium growth (Fusarium [1]; Batch 1, 75 ppm, day 0 (inoculum plug)): 8.3 mm
- coverage of the plates by the fungus (Fusarium [1]; Batch 1, 75 ppm, day 4): 36.7% covered
- diameter of Fusarium growth (Fusarium [1]; Batch 1, 75 ppm, day 4): 23.7 mm
- coverage of the plates by the fungus (Fusarium [1]; Batch 1, 75 ppm, day 7): 60% covered
- diameter of Fusarium growth (Fusarium [1]; Batch 1, 75 ppm, day 7): 27.0 mm
- growth, color and physical appearance (Fusarium [1]; Batch 1, 75 ppm, day 11): Confluent, dark
- diameter of Fusarium growth (Fusarium [1]; Batch 1, 100 ppm, day 0 (inoculum plug)): 8.0 mm
- coverage of the plates by the fungus (Fusarium [1]; Batch 1, 100 ppm, day 4): 26.7% covered
- diameter of Fusarium growth (Fusarium [1]; Batch 1, 100 ppm, day 4): 23.7 mm
- coverage of the plates by the fungus (Fusarium [1]; Batch 1, 100 ppm, day 7): 46.7% covered
- diameter of Fusarium growth (Fusarium [1]; Batch 1, 100 ppm, day 7): 28.3 mm
- coverage of the plates by the fungus (Fusarium [1]; Batch 1, 100 ppm, day 11): 80% covered
- growth, color and physical appearance (Fusarium [1]; Batch 1, 100 ppm, day 11): Dark pink
- diameter of Fusarium growth (Fusarium [1]; Batch 1, 250 ppm, day 0 (inoculum plug)): 8.7 mm
- diameter of Fusarium growth (Fusarium [1]; Batch 1, 250 ppm, day 4): 16.0 mm
- diameter of Fusarium growth (Fusarium [1]; Batch 1, 250 ppm, day 7): 22.0 mm
- coverage of the plates by the fungus (Fusarium [1]; Batch 1, 250 ppm, day 11): 29.7% covered
- growth, color and physical appearance (Fusarium [1]; Batch 1, 250 ppm, day 11): Yellow broth
- diameter of Fusarium growth (Fusarium [1]; Batch 2, 25 ppm, day 0 (inoculum plug)): 7.8 mm
- coverage of the plates by the fungus (Fusarium [1]; Batch 2, 25 ppm, day 4): 76.7%
- growth, color and physical appearance (Fusarium [1]; Batch 2, 25 ppm, day 4): dark peach
- coverage of the plates by the fungus (Fusarium [1]; Batch 2, 25 ppm, day 6): 88.3%
- growth, color and physical appearance (Fusarium [1]; Batch 2, 25 ppm, day 6): pink
- coverage of the plates by the fungus (Fusarium [1]; Batch 2, 25 ppm, day 8): 91.7%
- growth, color and physical appearance (Fusarium [1]; Batch 2, 25 ppm, day 8): dark pink
- coverage of the plates by the fungus (Fusarium [1]; Batch 2, 25 ppm, day 11): 91.7%
- growth, color and physical appearance (Fusarium [1]; Batch 2, 25 ppm, day 11): dark pink
- coverage of the plates by the fungus (Fusarium [1]; Batch 2, 25 ppm, day 14): 91.7%
- growth, color and physical appearance (Fusarium [1]; Batch 2, 25 ppm, day 14): dark pink,
- diameter of Fusarium growth (Fusarium [1]; Batch 2, 50 ppm, day 0 (inoculum plug)): 7.5 mm
- coverage of the plates by the fungus (Fusarium [1]; Batch 2, 50 ppm, day 4): 43.3%
- growth, color and physical appearance (Fusarium [1]; Batch 2, 50 ppm, day 4): peach
- coverage of the plates by the fungus (Fusarium [1]; Batch 2, 50 ppm, day 6): 60%
- growth, color and physical appearance (Fusarium [1]; Batch 2, 50 ppm, day 6): pink
- coverage of the plates by the fungus (Fusarium [1]; Batch 2, 50 ppm, day 8): 61.7%
- growth, color and physical appearance (Fusarium [1]; Batch 2, 50 ppm, day 8): dark pink
- coverage of the plates by the fungus (Fusarium [1]; Batch 2, 50 ppm, day 11): 68.3%
- growth, color and physical appearance (Fusarium [1]; Batch 2, 50 ppm, day 11): dark pink
- coverage of the plates by the fungus (Fusarium [1]; Batch 2, 50 ppm, day 14): 55.0%
- growth, color and physical appearance (Fusarium [1]; Batch 2, 50 ppm, day 14): dark pink,
- diameter of Fusarium growth (Fusarium [1]; Batch 2, 75 ppm, day 0 (inoculum plug)): 8.0 mm
- coverage of the plates by the fungus (Fusarium [1]; Batch 2, 75 ppm, day 4): 13.3%
- diameter of Fusarium growth (Fusarium [1]; Batch 2, 75 ppm, day 4): 21.3 mm
- growth, color and physical appearance (Fusarium [1]; Batch 2, 75 ppm, day 4): peach
- coverage of the plates by the fungus (Fusarium [1]; Batch 2, 75 ppm, day 6): 40%
- growth, color and physical appearance (Fusarium [1]; Batch 2, 75 ppm, day 6): pink
- coverage of the plates by the fungus (Fusarium [1]; Batch 2, 75 ppm, day 8): 46.7%
- growth, color and physical appearance (Fusarium [1]; Batch 2, 75 ppm, day 8): pink
- coverage of the plates by the fungus (Fusarium [1]; Batch 2, 75 ppm, day 11): 61.7%
- growth, color and physical appearance (Fusarium [1]; Batch 2, 75 ppm, day 11): dark pink
- coverage of the plates by the fungus (Fusarium [1]; Batch 2, 75 ppm, day 14): 68.3%
- growth, color and physical appearance (Fusarium [1]; Batch 2, 75 ppm, day 14): dark pink,
- diameter of Fusarium growth (Fusarium [1]; Batch 2, 100 ppm, day 0 (inoculum plug)): 7.8 mm
- diameter of Fusarium growth (Fusarium [1]; Batch 2, 100 ppm, day 4): 22.3 mm
- growth, color and physical appearance (Fusarium [1]; Batch 2, 100 ppm, day 4): peach
- diameter of Fusarium growth (Fusarium [1]; Batch 2, 100 ppm, day 6): 20.0 mm
- growth, color and physical appearance (Fusarium [1]; Batch 2, 100 ppm, day 6): light peach
- coverage of the plates by the fungus (Fusarium [1]; Batch 2, 100 ppm, day 8): 30.3%
- growth, color and physical appearance (Fusarium [1]; Batch 2, 100 ppm, day 8): pink
- diameter of Fusarium growth (Fusarium [1]; Batch 2, 100 ppm, day 11): 37 mm
- growth, color and physical appearance (Fusarium [1]; Batch 2, 100 ppm, day 11): pink/yellow
- diameter of Fusarium growth (Fusarium [1]; Batch 2, 100 ppm, day 14): 42.7 mm
- growth, color and physical appearance (Fusarium [1]; Batch 2, 100 ppm, day 14): pink, fuzzy
- diameter of Fusarium growth (Fusarium [1]; Batch 2, 250 ppm, day 0 (inoculum plug)): 7.3 mm
- diameter of Fusarium growth (Fusarium [1]; Batch 2, 250 ppm, day 4): 17.0 mm
- growth, color and physical appearance (Fusarium [1]; Batch 2, 250 ppm, day 4): light peach
- diameter of Fusarium growth (Fusarium [1]; Batch 2, 250 ppm, day 6): 19.7 mm
- growth, color and physical appearance (Fusarium [1]; Batch 2, 250 ppm, day 6): very light
- diameter of Fusarium growth (Fusarium [1]; Batch 2, 250 ppm, day 8): 22 mm
- growth, color and physical appearance (Fusarium [1]; Batch 2, 250 ppm, day 8): dark peach
- diameter of Fusarium growth (Fusarium [1]; Batch 2, 250 ppm, day 11): 25.7 mm
- growth, color and physical appearance (Fusarium [1]; Batch 2, 250 ppm, day 11): yellow broth
- diameter of Fusarium growth (Fusarium [1]; Batch 2, 250 ppm, day 14): 35.0 mm
- growth, color and physical appearance (Fusarium [1]; Batch 2, 250 ppm, day 14): pink, fuzzy
- diameter of Fusarium growth (Fusarium [1]; Batch 3, 25 ppm, day 0 (inoculum plug)): 8.2 mm
- coverage of the plates by the fungus (Fusarium [1]; Batch 3, 25 ppm, day 4): 25% covered
- diameter of Fusarium growth (Fusarium [1]; Batch 3, 25 ppm, day 4): 26.3 mm
- growth, color and physical appearance (Fusarium [1]; Batch 3, 25 ppm, day 4): peach
- coverage of the plates by the fungus (Fusarium [1]; Batch 3, 25 ppm, day 7): 33.3% covered
- diameter of Fusarium growth (Fusarium [1]; Batch 3, 25 ppm, day 7): 24.7 mm
- growth, color and physical appearance (Fusarium [1]; Batch 3, 25 ppm, day 7): pink, fuzzy
- coverage of the plates by the fungus (Fusarium [1]; Batch 3, 25 ppm, day 11): 38.3%
- diameter of Fusarium growth (Fusarium [1]; Batch 3, 25 ppm, day 11): 31.3 mm
- growth, color and physical appearance (Fusarium [1]; Batch 3, 25 ppm, day 11): pink, fuzzy
- coverage of the plates by the fungus (Fusarium [1]; Batch 3, 25 ppm, day 14): 45.0% covered,
- diameter of Fusarium growth (Fusarium [1]; Batch 3, 25 ppm, day 14): 32.0 mm
- growth, color and physical appearance (Fusarium [1]; Batch 3, 25 ppm, day 14): pink, fuzzy
- diameter of Fusarium growth (Fusarium [1]; Batch 3, 50 ppm, day 0 (inoculum plug)): 7.5 mm
- coverage of the plates by the fungus (Fusarium [1]; Batch 3, 50 ppm, day 4): 28.3% covered
- diameter of Fusarium growth (Fusarium [1]; Batch 3, 50 ppm, day 4): 22.7 mm
- growth, color and physical appearance (Fusarium [1]; Batch 3, 50 ppm, day 4): peach
- coverage of the plates by the fungus (Fusarium [1]; Batch 3, 50 ppm, day 7): 41.7% covered
- diameter of Fusarium growth (Fusarium [1]; Batch 3, 50 ppm, day 7): 25.7 mm
- growth, color and physical appearance (Fusarium [1]; Batch 3, 50 ppm, day 7): pink, fuzzy
- coverage of the plates by the fungus (Fusarium [1]; Batch 3, 50 ppm, day 11): 41.7%
- diameter of Fusarium growth (Fusarium [1]; Batch 3, 50 ppm, day 11): 28.0 mm
- growth, color and physical appearance (Fusarium [1]; Batch 3, 50 ppm, day 11): pink, fuzzy
- coverage of the plates by the fungus (Fusarium [1]; Batch 3, 50 ppm, day 14): 48.3% covered,
- diameter of Fusarium growth (Fusarium [1]; Batch 3, 50 ppm, day 14): 29.3 mm
- growth, color and physical appearance (Fusarium [1]; Batch 3, 50 ppm, day 14): pink, fuzzy
- diameter of Fusarium growth (Fusarium [1]; Batch 3, 75 ppm, day 0 (inoculum plug)): 8.2 mm
- diameter of Fusarium growth (Fusarium [1]; Batch 3, 75 ppm, day 4): 25.2 mm
- growth, color and physical appearance (Fusarium [1]; Batch 3, 75 ppm, day 4): peach
- diameter of Fusarium growth (Fusarium [1]; Batch 3, 75 ppm, day 7): 32.7 mm
- growth, color and physical appearance (Fusarium [1]; Batch 3, 75 ppm, day 7): pink, fuzzy
- diameter of Fusarium growth (Fusarium [1]; Batch 3, 75 ppm, day 11): 41.0 mm
- growth, color and physical appearance (Fusarium [1]; Batch 3, 75 ppm, day 11): pink, fuzzy
- coverage of the plates by the fungus (Fusarium [1]; Batch 3, 75 ppm, day 14): 38.1% covered,
- diameter of Fusarium growth (Fusarium [1]; Batch 3, 75 ppm, day 14): 43.7 mm
- growth, color and physical appearance (Fusarium [1]; Batch 3, 75 ppm, day 14): pink, fuzzy
- diameter of Fusarium growth (Fusarium [1]; Batch 3, 100 ppm, day 0 (inoculum plug)): 8.7 mm
- diameter of Fusarium growth (Fusarium [1]; Batch 3, 100 ppm, day 4): 21.7 mm
- growth, color and physical appearance (Fusarium [1]; Batch 3, 100 ppm, day 4): peach
- diameter of Fusarium growth (Fusarium [1]; Batch 3, 100 ppm, day 7): 25.0 mm
- growth, color and physical appearance (Fusarium [1]; Batch 3, 100 ppm, day 7): pink, fuzzy
- diameter of Fusarium growth (Fusarium [1]; Batch 3, 100 ppm, day 11): 26.0 mm
- growth, color and physical appearance (Fusarium [1]; Batch 3, 100 ppm, day 11): pink, fuzzy
- coverage of the plates by the fungus (Fusarium [1]; Batch 3, 100 ppm, day 14): 34.9% covered,
- diameter of Fusarium growth (Fusarium [1]; Batch 3, 100 ppm, day 14): 26.7 mm
- growth, color and physical appearance (Fusarium [1]; Batch 3, 100 ppm, day 14): pink, fuzzy
- diameter of Fusarium growth (Fusarium [1]; Batch 3, 250 ppm, day 0 (inoculum plug)): 7.3 mm
- diameter of Fusarium growth (Fusarium [1]; Batch 3, 250 ppm, day 4): 12.2 mm
- growth, color and physical appearance (Fusarium [1]; Batch 3, 250 ppm, day 4): yellow
- diameter of Fusarium growth (Fusarium [1]; Batch 3, 250 ppm, day 7): 20 mm
- growth, color and physical appearance (Fusarium [1]; Batch 3, 250 ppm, day 7): peach, fuzzy
- diameter of Fusarium growth (Fusarium [1]; Batch 3, 250 ppm, day 11): 29.7 mm
- diameter of Fusarium growth (Fusarium [1]; Batch 3, 250 ppm, day 14): 38.7 mm
- growth, color and physical appearance (Fusarium [1]; Batch 3, 250 ppm, day 14): peach with yellow
- inhibition of Fusarium (Fusarium [1]; concentrations lower than 250 ppm, not as effective): some inhibition
- inhibition against Fusarium (Fusarium [2]; 100 ppm or lower): not very effective
- inhibition against Fusarium (Fusarium [2]; 250 ppm): very good inhibition
- time for which growth of Fusarium is limited (Fusarium [2]; 250 ppm): two weeks
